We go through 9 compounds from patent US20190225941A1, “MODULATION OF FUNCTION OF IMMUNE EFFECTOR CELLS” (OSLO UNIVERSITETSSYKEHUS HF, priority 2016, published 2019).

“Also recorded” adds a separate entry of the source. Peptide text beside a SMILES is read from it. * marks the point of attachment. βNA = c1ccc2cc(N*)ccc2c1

Data set [1] concerns NK cells. Description: Granzyme B expression by flow cytometry after IL-15 or IL-21 stimulation with or without signalling inhibitors. The format is cell-based, human. An excerpt:
Isolated PBMC were stained for flow cytometric analysis using an appropriate combination of the following antibodies, followed by the name of the clone in brackets: CD14-V500 (M5E2), CD19-V500 (HIB19), CD3-V500 (UCHT1), CD56 ECD (N901) CD57-PB (HCD57), CD57 purified (TB01), anti-mouse-IgM-EF650 (II/41), NKG2A-PE, APC or APC.AF750 (Z199), CD16-BV785 (3G8), KIR2DL3-FITC, KIR2DL1-APC or APC-Vio770 (REA284), KIR3DL1-AF700 or BV421 (D×9), KIR2DS4-QD585 (1847), KIR3DL2-biotin (D×31), KIR2DL2/L3/S2-PE.Cy5.5 (GL183), KIR2DL1/S1-PE.Cy7 (EB6) or PE-Vio770 (11 PB6). Dead cells were labelled using live/dead aqua (Life technologies). Biotin-conjugated antibodies were visualized using streptavidin-Qdot 585 or 605 (Life technologies). After surface staining, cells were fixed and permeabilized using a fixation/permeabilization kit (BD Bioscience Cytofix/Cytoperm) prior to intracellular staining with anti-granzyme B-A700 (GB11). Samples were acquired using an LSRII flow cytometer (Becton Dickinson) and data was analysed using FlowJo V10.0.8 (TreeStar).

The test system of data set [2] is NK cells. Description: Degranulation (CD107a) and intracellular IFN-γ functional assay, NK cells stimulated with K562 target cells. The data set is classed as cell-based, human. The following applies: for IFN-γ response to K562 cells / degranulation (CD107a) in response to K562 cells: 5 h, 1:1 ratio, GPN 50 μM, mefloquine 10 μM, siramesine 10 μM, vacuolin-1 10 μM. As for the experimental part: (§1) Functional assays were performed at 37° C. in complete medium (RPMI+10% FCS) for the times indicated. Purified NK cells were incubated with K562 target cells for 5 hours at a ratio of 1:1 in the presence of anti-CD107a-FITC (biolegend) for degranulation assays, or with the addition of Brefeldin A (GolgiPlug BD) for degranulation plus intracellular cytokine assays. Treatment with lysosomotropic reagents were performed for the duration of the assay using the following final concentrations; glycyl-L-phenylalanine-β-naphthylamide (GPN, 50 μM), mefloquine (10 μM), siramesine (10 μM), vacuolin-1 (10 μM). Stimulation with PMA (1 μg/mL) and ionomycin (0.5 μM), or with thapsigargin (1 μM) and/or U18666a (2 μg/mL) were performed for the times indicated, and the cells were stained for CD107a surface expression post-stimulation.

The subject of data set [3] is NK cells. Description: CD107a mobilization after PMA/Ionomycin stimulation. The data set is classed as cell-based, human. The following applies: indicated doses of GPN, FIG. 14D-E. The method, then: as §1
Data set [4] deals with NK cells. Description: Viability of NK cells exposed to lysosomotropic compounds. The data set is classed as cell-based, human. The following applies: at the doses tested, FIG. 15A.
Data set [5] relates to primary NK cells. Description: Phospho-flow cytometry after CD16 ligation. The data set is classed as cell-based, human. Particulars: 1 h pre-treatment, GPN 50 μM or vacuolin-1 10 μM. The method, then:
Functional assays for phospho-flow cytometry were performed at 37° C. in complete medium in NK cell suspensions between 5-10 M/mL for 20 min. Cells were pre-treated for 1 h using GPN (50 μM) or vacuolin-1 (10 μM), after which biotinylated CD16 (Biolegend, clone 3G8) was added to final concentrations of 5 μg/mL each. After 1 min, the aliquot for the 0 min (unstimulated) sample was taken out and mixed with Fix Buffer I (BD Biosciences). After one additional minute, the stimulation was started by crosslinking the biotinylated antibodies via 50 μg/mL avidin (Thermo Fischer Scientific) and the aliquots for the 5 min, 10 min and 20 min samples were transferred into Fix Buffer I (BD bioscience) at the corresponding time points. Cells were fixed at 37° C. for 10 min, washed and re-suspended in PBS. To allow combination of the differently stimulated samples into one, two dimensional fluorescent cell barcoding (FCB) was utilized. Samples were stained in distinct concentrations of amine-reactive pacific blue succinimidyl ester (Thermo Fisher Scientific) for the time points (0 min-0.69 ng/mL, 5 min-6.25 ng/mL, 10 min-25 ng/mL and 20 min-100 ng/mL) in combination with amine-reactive pacific orange succinimidyl ester (Thermo Fisher Scientific) for the different stimulations (control—10 ng/mL, GPN—100 ng/mL and vacuolin-1-500 ng/mL). After 20 min at RT, samples were washed twice in wash solution (PBS supplemented with 1% FCS and 0.09% sodium azide), combined, permeabilized (Perm Buffer III, BD Biosciences) and stored at −80° C. For thawing, samples were incubated 20 min on ice. Then, they were washed in wash solution and stained with Alexa Fluor 647-conjugated phospho epitope-specific antibodies against ZAP70/syk (pY319/pY352), Lck (pY505), Erk1/2 (pT202/pY204) (BD Bioscience), NF-κB p65 (pS536) (Cell Signaling Technologies) or isotype control IgG1K (BD Biosciences) for 30 min at RT. After washing data was acquired on an LSR Fortessa (BD Biosciences) and analysed in with FlowJo v10.0.8 (TreeStar).
(A flow cytometer gives signals particle by particle.)

The test system of data set [6] is primary NK cells. Description: Confocal imaging of primary NK cells exposed to PIKfyve inhibitors (LAMP-1 / granzyme B staining). The data set is classed as cell-based, human. The following applies: for secretory lysosome size: 1 μM overnight, LAMP-1 staining, FIG. 10. The method, then: Sorted NK cells were prepared for confocal microscopy using fixation/permeabilization (BD Bioscience Cytofix/Cytoperm) prior to intracellular staining with mouse anti-human granzyme B-A647 (GB11), rabbit anti-human pericentrin (Ab4448) followed by Donkey anti-Rabbit IgG Alexa555 and donkey anti-mouse-A568. After staining, the fixed cells were adhered to glass cover slips using Cell Tak (Corning) and mounted using Pro-long Gold Antifade with DAPI. The cells were examined with a Zeiss LSM 710 confocal microscope (Carl Zeiss Microlmaging GmbH) equipped with an Ar-Laser Multiline (458/488/514 nm), a DPSS-561 10 (561 nm), a Laser diode 405-30 CW (405 nm), and a HeNe-laser (633 nm). The objective used was a Zeiss plan-Apochromat 63×NA/1.4 oil DICII. Image processing and analysis were performed with basic software ZEN 2011 (Carl Zeiss Microlmaging GmbH) and Imaris 7.7.2 (Bitplane AG). Confocal z-stacks were deconvolved using Huygens Essential 14.06 (Scientific Volume Imaging b.v.), and visualized with Imaris.
Cells were surface-stained with anti-human HLA-ABC antibody (W6/32, BioLegend) prior to settlement on CelITak-coated slides for 20 minutes, followed by fixation with 4% paraformaldehyde. Intracellular staining was performed by incubation with anti-human LAMP-1 (Ab24170, Abcam) for 4h, followed by donkey anti-rabbit-A488 antibody (abcam) and donkey anti-mouse-A568 antibody (Abcam) and Hoechst33342.
Where indicated, cells were stained with mouse anti-human granzyme B-A647 (GB11) instead of anti-HLA-ABC, followed by donkey anti-mouse-A568.

Data set [7] has as its system NK cells. Particulars: positive control, known property; cited from earlier work.

For the compound IL-15: cytokine used to prime NK cells, in the data set on NK cells [1] (CD56bright NK cells), the “granzyme B response to cytokine priming, CD56bright NK cells” value is recorded as “responded to priming by IL-15”. The “granzyme B response to cytokine stimulation, CD56dim NK cells” value in the data set on NK cells [1] is recorded as “increases in the level of granzyme B”.
On to `CCC(=O)N1CCN(c2ccc(-n3c(=O)ccc4cnc5ccc(-c6cnc7ccccc7c6)cc5c43)cc2C(F)(F)F)CC1` [Torin-1], for which the “cytokine-induced increase in granzyme B” value in the data set with NK cells [1] (24 h IL-15 or IL-21, self- and non-self-specific NK cells) was “reversed the cytokine-induced increase in granzyme B”. The “pre-existing constitutive levels of granzyme B” value in the data set with NK cells [1] (before cytokine stimulation, FIG. 6) is reported as “did not further reduce”.
Regarding `NCC(=O)N[C@@H](Cc1ccccc1)C(=O)Nc1ccc2ccccc2c1` [GPN, glycyl-L-phenylalanine-beta-naphthylamide] (H-Gly-Phe-βNA), in the data set on NK cells [2], the “IFN-γ response to K562 cells” value is “reduced corresponding IFN-γ expression” and the “degranulation (CD107a) in response to K562 cells” value was “abrogate specific degranulation”. The “threshold for PMA/I-induced activation in self-specific NK cells” value with NK cells [3] was “reversed the higher threshold for PMA/I-induced activation”. The “general cellular toxicity (NK cell viability)” value (“general cellular toxicity” below) in the data set with NK cells [4] is given as “none of these compounds showed any general cellular toxicity”. For the same compound, in the data set with primary NK cells [5], the “propagation of down-stream signals, in particular NF-κB” value is reported as “decreased”; the “upstream signalling (ZAP70 and Lck phosphorylation) following ligation of CD16” value is “minimal effect”.
On to `Ic1cccc(/C=N/Nc2nc(N3CCOCC3)nc(N(c3ccccc3)c3ccccc3)n2)c1` [vacuolin-1], for which, in the data set with NK cells [2], the “IFN-γ response to K562 cells” value is “enhanced” and the “degranulation (CD107a) in response to K562 cells” value is listed as “enhanced”. The “NK cell function, compound alone” value in the data set on NK cells [2] (resting NK cells, no target cell stimulation) is listed as “had no effect”. In addition, in the data set with primary NK cells [5], the “propagation of down-stream signals, in particular NF-κB” value was “increased”; the “upstream signalling (ZAP70 and Lck phosphorylation) following ligation of CD16” value is “minimal effect”. Besides, in the data set with primary NK cells [6], the secretory lysosome size result is given as “increase in secretory lysosome size”. The “clustering of granzyme B within secretory lysosomes” value in the data set with primary NK cells [6] (vacuolin-1 treatment, FIG. 11) is recorded as “clustering of Granzyme B inside the secretory lysosomes; also recorded: cause granzyme B to cluster within the large secretory lysosomes formed”.
Consider `Fc1ccc(-n2cc(CCCCN3CCC4(CC3)OCc3ccccc34)c3ccccc32)cc1` [Siramesine], for which the “general cellular toxicity” value in the data set on NK cells [4] is “none of these compounds showed any general cellular toxicity”.
Regarding `COC(=O)[C@H](CC(C)C)NC(=O)[C@@H](N)CC(C)C` [LeuLeuOMe, L-Leucyl-L-leucine methyl ester], in the data set on NK cells [7], the “induction of apoptosis in immune cells” value is “known to induce apoptosis in immune cells”.
For the compound `OC(c1cc(C(F)(F)F)nc2c(C(F)(F)F)cccc12)C1CCCCN1` (stereo not shown) [Mefloquine], the “general cellular toxicity” value in the data set with NK cells [4] is given as “none of these compounds showed any general cellular toxicity”.
For the compound IL-21: cytokine used to prime NK cells, in the data set on NK cells [1], the “granzyme B response to cytokine stimulation, CD56dim NK cells” value was “increases in the level of granzyme B”.
Consider `Cc1cccc(/C=N/Nc2cc(N3CCOCC3)nc(OCCc3ccccn3)n2)c1` [apilimod], for which, in the data set with primary NK cells [6], the secretory lysosome size entry is “increase in secretory lysosome size”.
